Target: Carbonic anhydrase 1 (Homo sapiens, UniProt P00915)
Assay: Inhibition of human cytosolic CA 1 preincubated for 15 mins by phenol red dye-based stopped-flow CO2 hydration assay
Conditions: not given

Chain of Carbonic anhydrase 1 (P00915 whole entry): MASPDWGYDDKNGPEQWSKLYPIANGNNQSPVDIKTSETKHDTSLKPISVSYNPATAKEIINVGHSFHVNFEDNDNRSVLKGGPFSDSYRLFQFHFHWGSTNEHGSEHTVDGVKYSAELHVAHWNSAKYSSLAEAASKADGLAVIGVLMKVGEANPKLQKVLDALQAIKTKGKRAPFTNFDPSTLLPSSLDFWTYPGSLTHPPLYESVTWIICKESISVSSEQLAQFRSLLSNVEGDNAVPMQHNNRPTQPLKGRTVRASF

Ki | SMILES
89.7 nM | Cc1nn(-c2ccc(S(N)(=O)=O)cc2)c(=O)c2ccccc12
482 nM | NS(=O)(=O)c1ccc(-n2ncc(Cl)c(Cl)c2=O)cc1
101 nM | Cc1cc(-c2cccnc2)nn(-c2ccc(S(N)(=O)=O)cc2)c1=O
187 nM | NS(=O)(=O)c1ccc(N2N=C(c3ccccc3)CCC2=O)cc1
90.7 nM | COc1ccc2cnn(-c3ccc(S(N)(=O)=O)cc3)c(=O)c2c1OC
227 nM | NS(=O)(=O)c1ccc(-n2nc(-c3ccncc3)ccc2=O)cc1

The remaining lines, values behind:

SMILES | Ki
COc1ccc(C2=NN(c3ccc(S(N)(=O)=O)cc3)C(=O)CC2)cc1 | 92.7 nM
NS(=O)(=O)c1ccc(-n2ncc(N3CCCCCC3)c(Cl)c2=O)cc1 | 97.4 nM
CC1=NN(c2ccc(S(N)(=O)=O)cc2)C(=O)CC1 | 88.2 nM
NS(=O)(=O)c1ccc(-n2nc(-c3ccc4c(c3)OCO4)ccc2=O)cc1 | 99 nM
NS(=O)(=O)c1ccc(-n2ncc(N3CCOCC3)cc2=O)cc1 | 292 nM
NS(=O)(=O)c1ccc(N2N=C(c3ccc(Cl)c(Cl)c3)CCC2=O)cc1 | 5960 nM

Target: Carbonic anhydrase 2 (Homo sapiens, UniProt P00918)
Assay: Inhibition of human cytosolic CA 2 preincubated for 15 mins by phenol red dye-based stopped-flow CO2 hydration assay
Conditions: not given

Ki | SMILES
0.03 nM | Cc1nn(-c2ccc(S(N)(=O)=O)cc2)c(=O)c2ccccc12
2.3 nM | NS(=O)(=O)c1ccc(-n2ncc(Cl)c(Cl)c2=O)cc1
2.9 nM | Cc1cc(-c2cccnc2)nn(-c2ccc(S(N)(=O)=O)cc2)c1=O
0.26 nM | NS(=O)(=O)c1ccc(N2N=C(c3ccccc3)CCC2=O)cc1
3.5 nM | COc1ccc2cnn(-c3ccc(S(N)(=O)=O)cc3)c(=O)c2c1OC
4.8 nM | NS(=O)(=O)c1ccc(-n2nc(-c3ccncc3)ccc2=O)cc1

The next lines start with the compound.

SMILES | Ki
COc1ccc(C2=NN(c3ccc(S(N)(=O)=O)cc3)C(=O)CC2)cc1 | 0.08 nM
NS(=O)(=O)c1ccc(-n2ncc(N3CCCCCC3)c(Cl)c2=O)cc1 | 0.06 nM
CC1=NN(c2ccc(S(N)(=O)=O)cc2)C(=O)CC1 | 0.68 nM
NS(=O)(=O)c1ccc(-n2nc(-c3ccc4c(c3)OCO4)ccc2=O)cc1 | 1.4 nM
NS(=O)(=O)c1ccc(-n2ncc(N3CCOCC3)cc2=O)cc1 | 0.55 nM
NS(=O)(=O)c1ccc(N2N=C(c3ccc(Cl)c(Cl)c3)CCC2=O)cc1 | 74.1 nM

Target: Carbonic anhydrase 9 (Homo sapiens, UniProt Q16790)
Assay: Inhibition of membrane bound human CA 9 preincubated for 15 mins by phenol red dye-based stopped-flow CO2 hydration assay
Conditions: not given

Ki | SMILES
0.24 nM | Cc1nn(-c2ccc(S(N)(=O)=O)cc2)c(=O)c2ccccc12
8.7 nM | NS(=O)(=O)c1ccc(-n2ncc(Cl)c(Cl)c2=O)cc1
2.3 nM | Cc1cc(-c2cccnc2)nn(-c2ccc(S(N)(=O)=O)cc2)c1=O
4.8 nM | NS(=O)(=O)c1ccc(N2N=C(c3ccccc3)CCC2=O)cc1
8.9 nM | COc1ccc2cnn(-c3ccc(S(N)(=O)=O)cc3)c(=O)c2c1OC
50.8 nM | NS(=O)(=O)c1ccc(-n2nc(-c3ccncc3)ccc2=O)cc1

Further lines, the compound ahead of its results:

SMILES | Ki
COc1ccc(C2=NN(c3ccc(S(N)(=O)=O)cc3)C(=O)CC2)cc1 | 2.4 nM
NS(=O)(=O)c1ccc(-n2ncc(N3CCCCCC3)c(Cl)c2=O)cc1 | 0.49 nM
CC1=NN(c2ccc(S(N)(=O)=O)cc2)C(=O)CC1 | 32.8 nM
NS(=O)(=O)c1ccc(-n2nc(-c3ccc4c(c3)OCO4)ccc2=O)cc1 | 28.2 nM
NS(=O)(=O)c1ccc(-n2ncc(N3CCOCC3)cc2=O)cc1 | 2.1 nM
NS(=O)(=O)c1ccc(N2N=C(c3ccc(Cl)c(Cl)c3)CCC2=O)cc1 | 6 nM

Target: Carbonic anhydrase 12 (Homo sapiens, UniProt O43570)
Assay: Inhibition of membrane bound human CA 12 preincubated for 15 mins by phenol red dye-based stopped-flow CO2 hydration assay
Conditions: not given

Chain of Carbonic anhydrase 12 (O43570 whole entry): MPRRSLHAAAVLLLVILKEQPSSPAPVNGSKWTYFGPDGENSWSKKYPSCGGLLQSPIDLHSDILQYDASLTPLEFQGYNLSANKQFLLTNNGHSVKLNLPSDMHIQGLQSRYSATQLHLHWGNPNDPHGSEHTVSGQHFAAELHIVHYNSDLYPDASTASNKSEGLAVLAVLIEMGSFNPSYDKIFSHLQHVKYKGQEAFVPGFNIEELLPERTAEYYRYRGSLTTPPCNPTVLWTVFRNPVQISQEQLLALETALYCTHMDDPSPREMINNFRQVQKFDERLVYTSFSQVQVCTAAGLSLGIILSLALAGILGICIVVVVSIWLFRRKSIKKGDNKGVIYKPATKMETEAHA

Ki | SMILES
9 nM | Cc1nn(-c2ccc(S(N)(=O)=O)cc2)c(=O)c2ccccc12
9.9 nM | NS(=O)(=O)c1ccc(-n2ncc(Cl)c(Cl)c2=O)cc1
8.8 nM | Cc1cc(-c2cccnc2)nn(-c2ccc(S(N)(=O)=O)cc2)c1=O
22.5 nM | NS(=O)(=O)c1ccc(N2N=C(c3ccccc3)CCC2=O)cc1
66.4 nM | COc1ccc2cnn(-c3ccc(S(N)(=O)=O)cc3)c(=O)c2c1OC
8.7 nM | NS(=O)(=O)c1ccc(-n2nc(-c3ccncc3)ccc2=O)cc1

The remaining lines, values behind:

SMILES | Ki
COc1ccc(C2=NN(c3ccc(S(N)(=O)=O)cc3)C(=O)CC2)cc1 | 9.9 nM
NS(=O)(=O)c1ccc(-n2ncc(N3CCCCCC3)c(Cl)c2=O)cc1 | 8.4 nM
CC1=NN(c2ccc(S(N)(=O)=O)cc2)C(=O)CC1 | 31 nM
NS(=O)(=O)c1ccc(-n2nc(-c3ccc4c(c3)OCO4)ccc2=O)cc1 | 63.7 nM
NS(=O)(=O)c1ccc(-n2ncc(N3CCOCC3)cc2=O)cc1 | 9.8 nM
NS(=O)(=O)c1ccc(N2N=C(c3ccc(Cl)c(Cl)c3)CCC2=O)cc1 | 67.1 nM

Tested on: PANC-1
Assay: Cytotoxicity against human PANC1 cells assessed as reduction in cell viability incubated for 48 hrs under hypoxia condition by MTT assay relative to human ARPE19 cells; also: test concentration or dose not given here
Format: functional
Conditions: not given

SMILES | Activity
COc1ccc(C2=NN(c3ccc(S(N)(=O)=O)cc3)C(=O)CC2)cc1 | >30%
NS(=O)(=O)c1ccc(-n2ncc(N3CCCCCC3)c(Cl)c2=O)cc1 | >30%
NS(=O)(=O)c1ccc(-n2ncc(Cl)c(Cl)c2=O)cc1 | >30%
CC1=NN(c2ccc(S(N)(=O)=O)cc2)C(=O)CC1 | >30%

Tested on: ARPE-19
Assay: Cytotoxicity against human ARPE19 cells assessed as reduction in cell viability incubated for 48 hrs under hypoxia condition by MTT assay relative to control
Format: cell-based
Conditions: arpe-19, 48 h

SMILES | Activity
COc1ccc(C2=NN(c3ccc(S(N)(=O)=O)cc3)C(=O)CC2)cc1 | Dose-dependent effect
NS(=O)(=O)c1ccc(-n2ncc(N3CCCCCC3)c(Cl)c2=O)cc1 | Dose-dependent effect

Tested on: ARPE-19
Assay: Cytotoxicity against human ARPE19 cells assessed as reduction in cell viability incubated for 48 hrs under normoxic condition by MTT assay relative to control
Format: cell-based
Conditions: arpe-19, 48 h

SMILES | Activity
COc1ccc(C2=NN(c3ccc(S(N)(=O)=O)cc3)C(=O)CC2)cc1 | Dose-dependent effect
NS(=O)(=O)c1ccc(-n2ncc(N3CCCCCC3)c(Cl)c2=O)cc1 | Dose-dependent effect
